Tests used:
[1] = target: T1, Aromatase (Homo sapiens, UniProt P11511); assay: Ratio of aminoglutethimide IC50 to compound IC50 for Homo sapiens (human) aromatase
T1 sequence (P11511 whole entry): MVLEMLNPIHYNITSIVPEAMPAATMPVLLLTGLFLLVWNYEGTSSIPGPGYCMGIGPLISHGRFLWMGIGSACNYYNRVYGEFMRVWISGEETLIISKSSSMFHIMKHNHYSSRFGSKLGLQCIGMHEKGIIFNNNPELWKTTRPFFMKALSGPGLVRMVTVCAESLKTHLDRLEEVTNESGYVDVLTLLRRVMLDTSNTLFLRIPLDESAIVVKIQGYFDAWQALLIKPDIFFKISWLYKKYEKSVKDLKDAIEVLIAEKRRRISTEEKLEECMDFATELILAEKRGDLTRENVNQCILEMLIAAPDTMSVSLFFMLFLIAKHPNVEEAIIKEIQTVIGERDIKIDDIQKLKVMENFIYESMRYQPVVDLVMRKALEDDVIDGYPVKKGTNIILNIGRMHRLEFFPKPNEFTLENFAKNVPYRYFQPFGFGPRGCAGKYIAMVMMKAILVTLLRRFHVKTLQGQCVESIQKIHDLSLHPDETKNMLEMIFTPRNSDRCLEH

[2] = target: T1, Aromatase; assay: Inhibition of Homo sapiens (human) aromatase assessed as 3H2O formation using [1beta,2beta-3H]testosterone as substrate at 36 uM by liquid scintillation counting analysis
[3] = target: T1, Aromatase; assay: Inhibition of Homo sapiens (human) aromatase assessed as 3H2O formation using [1beta,2beta-3H]testosterone as substrate by liquid scintillation counting analysis

SMILES	Ratio IC50 [1]	inhibition at 36 µM [2] [%]	IC50 [3] [nM]	also measured
COc1cc(/C=C2\Cc3ccccc3C2=O)ccc1OCCCn1ccnc1	54.1	–	–	–
O=C1/C(=C/c2cccc(OCCCCl)c2)Cc2ccccc21	–	13	–	–
O=C1/C(=C/c2ccccc2OCCCn2ccnc2)Cc2ccccc21	26.6	–	1100	–
COc1ccc(/C=C2\Cc3ccccc3C2=O)cc1OCCCCl	–	8	–	–
O=C1/C(=C/c2c[nH]c3ccccc23)Cc2ccccc21	–	6	–	–
COc1cc(/C=C2\Cc3ccccc3C2=O)ccc1OCCN(C)C	–	–	–	inhibition (INH) ([2]; 36 µM): Not Active
O=C1/C(=C/c2cccc(OCCCn3ccnc3)c2)Cc2ccccc21	42.5	–	700	–
COc1ccc(/C=C2\Cc3ccccc3C2=O)cc1OCCCn1ccnc1	22.5	–	1340	–
COc1cc(/C=C2\Cc3ccccc3C2=O)ccc1OCCCCl	–	8.5	–	–
O=C1/C(=C/c2ccccc2OCCCCl)Cc2ccccc21	–	8	–	–

From ChEMBL document CHEMBL3045212, “Synthesis of some imidazolyl-substituted 2-benzylidene indanone derivatives as potent aromatase inhibitors for breast cancer therapy” (Med Chem Res, 2011)
